# Test results as given in article PMC4569258.
# Entries after “also recorded” stand apart in the source; their conditions may differ. Where two headings read alike, the source gives them in different places.
# What was measured:
# [1] = test system: CYP2A6 mRNA; details: for induction of CYP2A6 mRNA: 10 μM
# [2] = test system: CYP2B6 mRNA; details: 10 μM
# [3] = test system: CYP2A6 protein; details: 10 μM
# Procedure: (§5) Total protein extracts were prepared from cells cultured on 6-well plates. Cells were washed twice with ice-cold PBS and scraped into 1 ml of PBS. The suspension was centrifuged (4500 rpm/5 min/4°C) and the pellet was resuspended in 150 μl of ice-cold lysis buffer (150 mM NaCl; 10 mM Tris pH 7.2; 0.1% (w/v) SDS; anti-protease cocktail, 1% (v/v) Triton X-100; anti-phosphatase cocktail, 1% (v/v) sodium deoxycholate; 5 mM EDTA). The mixture was vortexed and incubated for 10 min on ice and then centrifuged (15000 rpm/13 min/4°C). Supernatant was collected and the protein content was determined by the Bradford reagent.
# (§6) All reagents used for running the simple western by Sally Sue ^TM were obtained from ProteinSimple (San Jose, California) and prepared according to manufacturer’s recommendations (http://www.proteinsimple.com/sally_sue.html). […] Antibody diluent, goat anti-rabbit secondary antibody, and goat anti-mouse secondary antibody were purchased from ProteinSimple. The capillaries, containing a proprietary UV-activated chemical linked reagent and 384-well plates were obtained from ProteinSimple. All samples and reagents were prepared according to the recommended ProteinSimple manual. Target proteins were identified using primary antibodies and immunoprobed using a horseradish peroxidase-conjugated secondary antibody and chemiluminescent substrate. The resulting chemiluminescent signal was detected and quantified by the Compass Software version 2.6.5.0 (ProteinSimple). For quantitative data analysis, the CYPs signals were normalized to β-actin as a loading control.
# [4] = test system: CYP2B6 protein; details: 10 μM
# Procedure: as §5, §6
# [5] = test system: CYP1A1 mRNA; assay: CYP1A1 mRNA (qRT-PCR) in primary human hepatocytes; assay type: cell-based; details: 5 nM
# Procedure: (§1) Cells were cultured in serum-free medium.
# (§2) Measurements were performed in triplicates.
# [6] = test system: CYP1A2 mRNA; assay: CYP1A2 mRNA (qRT-PCR) in primary human hepatocytes; assay type: cell-based; details: 5 nM
# Procedure: as §1, §2
# [7] = test system: CYP1A1 protein; assay: CYP1A1 protein (Simple Western) in primary human hepatocytes; assay type: cell-based; details: 5 nM
# Procedure: as §1
# [8] = test system: CYP1A2 protein; assay: CYP1A2 protein (Simple Western) in primary human hepatocytes; assay type: cell-based; details: 5 nM
# Procedure: as §1
# [9] = target: T1, aryl hydrocarbon receptor (AhR) (Homo sapiens, UniProt P35869); assay: AhR gene reporter assay in AZ-AHR cells; details: for IC50: AhR antagonist IC50, antagonist mode, in presence of TCDD 5 nM
# T1 sequence (P35869 11-848): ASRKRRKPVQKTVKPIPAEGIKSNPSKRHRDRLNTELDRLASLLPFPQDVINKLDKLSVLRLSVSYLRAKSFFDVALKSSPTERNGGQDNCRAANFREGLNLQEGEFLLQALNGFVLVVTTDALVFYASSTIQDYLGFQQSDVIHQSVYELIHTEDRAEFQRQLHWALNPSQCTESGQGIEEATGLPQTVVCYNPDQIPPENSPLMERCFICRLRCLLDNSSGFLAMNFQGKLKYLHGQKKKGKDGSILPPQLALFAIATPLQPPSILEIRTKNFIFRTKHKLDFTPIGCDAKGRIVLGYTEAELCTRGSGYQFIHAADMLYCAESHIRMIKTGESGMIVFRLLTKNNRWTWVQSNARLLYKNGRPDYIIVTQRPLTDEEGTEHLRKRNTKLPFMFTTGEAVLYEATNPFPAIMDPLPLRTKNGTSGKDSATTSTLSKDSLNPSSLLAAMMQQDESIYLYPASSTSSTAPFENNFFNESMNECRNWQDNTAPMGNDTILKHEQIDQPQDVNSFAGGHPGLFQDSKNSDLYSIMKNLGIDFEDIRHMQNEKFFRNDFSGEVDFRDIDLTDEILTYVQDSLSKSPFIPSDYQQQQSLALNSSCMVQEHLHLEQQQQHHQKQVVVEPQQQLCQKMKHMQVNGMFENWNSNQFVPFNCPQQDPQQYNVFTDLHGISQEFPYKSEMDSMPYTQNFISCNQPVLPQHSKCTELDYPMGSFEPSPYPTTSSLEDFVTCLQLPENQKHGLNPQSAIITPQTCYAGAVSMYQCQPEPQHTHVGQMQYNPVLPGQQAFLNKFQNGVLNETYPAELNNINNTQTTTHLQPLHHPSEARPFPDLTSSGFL
# Procedure: (§7) A stably transfected gene reporter cell line AZ-AHR, derived from human hepatoma HepG2 cells transfected with a construct containing several AhR binding sites upstream of a luciferase reporter gene, was used for assessment of AhR transcriptional activity [20].
# (§8) Transcriptional activity of AhR was assessed in human gene reporter cell line AZ-AHR incubated for 24 h with tested compounds.
# (§9) AZ-AHR cells were seeded in 96-well plates and stabilized for 16 h and then incubated for 24 h with enantiopure forms of atorvastatin, rosuvastatin and fluvastatin in concentration ranging from 10^−10 M to 10^−4 M in the absence (agonist mode–upper panels) or presence (antagonist mode–lower panels) of dioxin (TCDD; 5 nM). The vehicle was DMSO (0.1% v/v). After the treatments, cells were lysed and luciferase activity was measured. Treatments were performed in triplicates. Data are expressed as a fold induction of luciferase activity over control cells (agonist mode) or as a percentage of maximal activation attained by TCDD (antagonist mode). The values of EC50 and IC50 from n independent cell passages were calculated where appropriate and the average values are indicated in plots. Representative gene reporter assays are shown.
# [10] = target: T2, glucocorticoid receptor (GR) (Homo sapiens, UniProt P04150); assay: GR gene reporter assay in AZ-GR cells; assay type: cell-based; details: for effect on dexamethasone-inducible transcriptional activity of GR, in words / IC50: antagonist mode; for effect on dexamethasone-inducible transcriptional activity of GR, in words: DEX 100 nM; for IC50: in presence of DEX 100 nM
# T2 sequence (P04150 1-777): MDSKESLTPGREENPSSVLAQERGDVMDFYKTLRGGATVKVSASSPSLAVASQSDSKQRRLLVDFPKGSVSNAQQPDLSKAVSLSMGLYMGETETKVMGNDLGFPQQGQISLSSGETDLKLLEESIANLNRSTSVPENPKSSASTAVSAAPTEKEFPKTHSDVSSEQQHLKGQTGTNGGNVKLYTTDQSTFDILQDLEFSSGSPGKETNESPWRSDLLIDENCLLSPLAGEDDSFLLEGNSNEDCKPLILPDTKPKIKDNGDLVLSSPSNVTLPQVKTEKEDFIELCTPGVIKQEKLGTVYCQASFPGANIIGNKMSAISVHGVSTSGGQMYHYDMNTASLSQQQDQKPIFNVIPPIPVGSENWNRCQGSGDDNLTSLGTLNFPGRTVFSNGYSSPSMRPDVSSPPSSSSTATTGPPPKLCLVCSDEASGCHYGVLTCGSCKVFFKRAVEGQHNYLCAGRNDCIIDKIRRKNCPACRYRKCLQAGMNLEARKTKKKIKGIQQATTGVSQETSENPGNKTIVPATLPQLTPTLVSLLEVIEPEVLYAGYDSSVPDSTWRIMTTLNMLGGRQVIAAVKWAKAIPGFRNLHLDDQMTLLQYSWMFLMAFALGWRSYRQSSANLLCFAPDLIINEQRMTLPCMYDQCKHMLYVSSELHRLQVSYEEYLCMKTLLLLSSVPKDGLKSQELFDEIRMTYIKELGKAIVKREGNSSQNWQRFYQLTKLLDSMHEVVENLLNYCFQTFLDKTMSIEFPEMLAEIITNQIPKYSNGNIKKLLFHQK
# Procedure: Transcriptional activity of GR was assessed in human gene reporter cell line AZ-GR incubated for 24 h with tested compounds. […] The vehicle was DMSO (0.1% v/v). […] Treatments were performed in triplicates.
# [11] = target: T3, pregnane X receptor (PXR) (Homo sapiens, UniProt O75469); details: for effect on rifampicin-inducible PXR transcriptional activity, in words: antagonist mode, RIF 10 μM, 24 h; for rifampicin-inducible luciferase activity, minimum of U-shaped curve: with RIF 10 μM, concentrations range 10^−8 M-10^−6 M
# T3 sequence (O75469 1-434): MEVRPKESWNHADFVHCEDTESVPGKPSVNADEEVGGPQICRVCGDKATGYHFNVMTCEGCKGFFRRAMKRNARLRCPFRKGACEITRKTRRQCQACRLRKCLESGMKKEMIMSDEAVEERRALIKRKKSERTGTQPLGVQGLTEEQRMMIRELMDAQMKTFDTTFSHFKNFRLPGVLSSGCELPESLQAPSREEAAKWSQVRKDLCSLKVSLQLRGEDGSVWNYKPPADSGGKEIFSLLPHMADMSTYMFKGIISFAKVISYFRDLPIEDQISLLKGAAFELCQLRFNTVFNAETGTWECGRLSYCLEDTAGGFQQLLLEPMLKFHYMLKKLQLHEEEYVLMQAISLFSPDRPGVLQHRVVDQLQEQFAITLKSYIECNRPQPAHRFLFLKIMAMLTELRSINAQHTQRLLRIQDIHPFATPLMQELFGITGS
# [12] = test system: CYP3A4 protein; details: HH59, HH61, HH63; 48 h
# Procedure: as §5
# All reagents used for running the simple western by Sally Sue ^TM were obtained from ProteinSimple (San Jose, California) and prepared according to manufacturer’s recommendations (http://www.proteinsimple.com/sally_sue.html). […] Antibody diluent, goat anti-rabbit secondary antibody, and goat anti-mouse secondary antibody were purchased from ProteinSimple. The capillaries, containing a proprietary UV-activated chemical linked reagent and 384-well plates were obtained from ProteinSimple. […] The resulting chemiluminescent signal was detected and quantified by the Compass Software version 2.6.5.0 (ProteinSimple). For quantitative data analysis, the CYPs signals were normalized to β-actin as a loading control.
# [13] = target: T1, aryl hydrocarbon receptor (AhR); assay: cell-based
# Procedure: as §7, §8, §9
# [14] = MTT cytotoxicity test in AZ-AHR cells; assay type: cell-based; details: human
# Procedure: (§3) Prior to gene reporter assays, we examined the cytotoxicity of tested compounds in AZ-AHR, AZ-GR and LS180 cell lines. For this purpose, the cells were incubated for 24 h with individual enantiomers of atorvastatin, fluvastatin and rosuvastatin at concentrations ranging from 100 pM to 100 μM. The vehicle was DMSO (0.1% v/v). After the treatment, a conventional MTT test was performed and the values of IC50 were calculated.
# (§4) Fig 2 Cytotoxicity of statin enantiomers in human cancer cell lines. […] After the treatment, a conventional MTT test was performed and absorbance was measured at 540 nm. Treatments were performed in triplicates.
# [15] = MTT cytotoxicity test in AZ-GR cells; assay type: cell-based; details: human, AZ-GR cells (HeLa-derived GR luciferase reporter cell line)
# Procedure: as §3, §4
# [16] = MTT cytotoxicity test in LS180 cells; assay type: cell-based; details: human, LS180 colon adenocarcinoma cells
# Procedure: as §3, §4
compound,measurement,setting,value
CO[C@H]1/C=C/O[C@@]2(C)Oc3c(C)c(O)c4c(O)c(c(/C=N/N5CCN(C)CC5)c(O)c4c3C2=O)NC(=O)/C(C)=C\C=C\[C@H](C)[C@H](O)[C@@H](C)[C@@H](O)[C@@H](C)[C@H](OC(C)=O)[C@@H]1C [rifampicin],induction of CYP2A6 mRNA,"[1]; culture HH59, 24 h",2.4 fold
same,induction of CYP2A6 mRNA,"[1]; culture HH61, 24 h",5.2 fold
same,induction of CYP2A6 mRNA,"[1]; culture HH63, 24 h",7.1 fold
same,induction of CYP2B6 mRNA,"[2]; culture HH59, 24 h",5.8 fold
same,induction of CYP2B6 mRNA,"[2]; culture HH61, 24 h",16 fold
same,induction of CYP2B6 mRNA,"[2]; culture HH63, 24 h",6.9 fold
same,induction of CYP2A6 protein,"[3]; culture HH59, 48 h",4.8 fold
same,induction of CYP2A6 protein,"[3]; culture HH61, 48 h",7.3 fold
same,induction of CYP2A6 protein,"[3]; culture HH63, 48 h",2.3 fold
same,induction of CYP2B6 protein,"[4]; culture HH59, 48 h",8.4 fold
same,induction of CYP2B6 protein,"[4]; culture HH61, 48 h",5.9 fold
same,induction of CYP2B6 protein,"[4]; culture HH63, 48 h",7.7 fold
"Clc1cc2c(cc1Cl)Oc1cc(Cl)c(Cl)cc1O2 [TCDD, 2,3,7,8-tetrachlorodibenzo-p-dioxin]",induction of CYP1A1 mRNA,"[5]; culture HH59, 24 h",98 fold
same,induction of CYP1A1 mRNA,"[5]; culture HH61, 24 h",339 fold
same,induction of CYP1A1 mRNA,"[5]; culture HH63, 24 h",278 fold
same,induction of CYP1A2 mRNA,"[6]; culture HH59, 24 h",110 fold
same,induction of CYP1A2 mRNA,"[6]; culture HH61, 24 h",143 fold
same,induction of CYP1A2 mRNA,"[6]; culture HH63, 24 h",45 fold
same,induction of CYP1A1 protein,"[7]; culture HH59, 48 h",35 fold
same,induction of CYP1A1 protein,"[7]; culture HH61, 48 h",220 fold
same,induction of CYP1A1 protein,"[7]; culture HH63, 48 h",35 fold
same,induction of CYP1A2 protein,"[8]; culture HH59, 48 h",19 fold
same,induction of CYP1A2 protein,"[8]; culture HH61, 48 h",83 fold
same,induction of CYP1A2 protein,"[8]; culture HH63, 48 h",50 fold
same,average induction of AhR-dependent luciferase activity,"[9]; 5 nM, eight consecutive passages, vs DMSO-treated cells",1107 fold
CC(C)c1nc(N(C)S(C)(=O)=O)nc(-c2ccc(F)cc2)c1C=CC(O)CC(O)CC(=O)O (stereo not drawn) [3R5S-rosuvastatin],"effect on dexamethasone-inducible transcriptional activity of GR, in words",[10]; 24 h,decreased
same,IC50,[10]; 24 h,89.7 ± 12.6 µM
same,"effect on rifampicin-inducible PXR transcriptional activity, in words",[11],inverse U-shaped curve
same,"induction of CYP2A6 mRNA, in words","[1]; HH59, HH61, HH63, 24 h, 1, 10, 30 μM",weak increase of CYP2A6 mRNA in culture HH61; also recorded: induced CYP2A6 mRNA
same,"induction of CYP3A4 protein, in words",[12],significant induction of CYP3A4 protein
same,EC50,[13],> 100 µM
same,IC50,[9]; 24 h,53.5 ± 60.4 µM
same,"effect on TCDD-inducible transcriptional activity of AhR, in words","[9]; antagonist mode, TCDD 5 nM, 24 h",dose-dependently inhibited
"CC(C)c1nc(N(C)S(C)(=O)=O)nc(-c2ccc(F)cc2)c1C=CC(O)CC(O)CC(=O)O (stereo not drawn) [3S5R-rosuvastatin, 3S5R- rosuvastatin]",IC50,[10]; 24 h,> 100 µM
same,"effect on rifampicin-inducible PXR transcriptional activity, in words",[11],not influenced
same,"induction of CYP3A4 protein, in words",[12],significant induction of CYP3A4 protein
same,EC50,[13],> 100 µM
same,IC50,[9]; 24 h,> 100 µM
CC(C)c1c(C(=O)Nc2ccccc2)c(-c2ccccc2)c(-c2ccc(F)cc2)n1CC[C@@H](O)C[C@@H](O)CC(=O)O [3R5R-atorvastatin],"effect on dexamethasone-inducible transcriptional activity of GR, in words",[10]; 24 h,decreased
C[C@@H]1C[C@H]2[C@@H]3CCC4=CC(=O)C=C[C@]4(C)[C@@]3(F)[C@@H](O)C[C@]2(C)[C@@]1(O)C(=O)CO [dexamethasone],average induction of GR-dependent luciferase activity,"[10]; 100 nM, eight consecutive passages, vs DMSO-treated cells",32 fold
"CC(C)c1nc(N(C)S(C)(=O)=O)nc(-c2ccc(F)cc2)c1C=CC(O)CC(O)CC(=O)O (stereo not drawn) [3R5R-rosuvastatin, 3R5R- rosuvastatin]",IC50 at 24 h,[14],> 100 µM
same,IC50 at 24 h,[15],> 100 µM
same,IC50 at 24 h,[16],> 100 µM
same,EC50,"[10]; agonist mode, 24 h",> 100 µM
same,IC50,[10]; 24 h,> 100 µM
same,"effect on rifampicin-inducible PXR transcriptional activity, in words",[11],U-shaped curve
same,"rifampicin-inducible luciferase activity, minimum of U-shaped curve",[11],60 % of rifampicin value
same,EC50,[13],> 100 µM
same,IC50,[9]; 24 h,> 100 µM
CC(C)n1c(C=CC(O)CC(O)CC(=O)O)c(-c2ccc(F)cc2)c2ccccc21 (stereo not drawn) [3S5S-fluvastatin],IC50 at 24 h,[14],> 100 µM
same,IC50 at 24 h,[15],> 100 µM
same,IC50 at 24 h,[16],> 100 µM
same,efficacy: average induction of PXR luciferase activity,"[11]; 100 μM concentration, agonist mode",around 3 fold
same,EC50,[13],14.7 ± 0.9 µM
same,IC50,[9]; 24 h,> 100 µM
same,"effect on AhR-dependent luciferase activity (agonist mode), in words","[9]; agonist mode, 24 h",slightly increased luciferase activity
CC(C)c1nc(N(C)S(C)(=O)=O)nc(-c2ccc(F)cc2)c1C=CC(O)CC(O)CC(=O)O (stereo not drawn) [3S5S-rosuvastatin],IC50,[10]; 24 h,> 100 µM
same,"effect on rifampicin-inducible PXR transcriptional activity, in words",[11],U-shaped curve
same,"rifampicin-inducible luciferase activity, minimum of U-shaped curve",[11],60 % of rifampicin value
same,EC50,[13],17.5 ± 0.4 µM
same,IC50,[9]; 24 h,> 100 µM
same,"efficacy of AhR activation, % of induction attained by TCDD",[9]; agonist mode,about 0.1%
same,"effect on AhR-dependent luciferase activity (agonist mode), in words","[9]; agonist mode, 24 h",dose-dependently increased luciferase activity
